Source: US7794760B2, “Herbal mixture extract of Pleurotus eryngii, Acanthopanacis Cortex and Notoginseng Radix and a composition comprising the same for prevention and treatment of periodontitis” (Oscotec Inc., priority 2005, dated 2010)

Tested on: OPG (osteoprotegerin)
Assay: OPG (osteoprotegerin) expression in MG-63 cells, OPG ELISA of supernatant
Type: cell-based, human
Conditions: positive control, 20 mM
Description: The following three types of cells were used to investigate the effect of the herbal mixture extract or each independent herbal extract of the present invention on the proliferation of osteoblasts. A human osteosarcoma derived cell line MG-63 (ATCC No, CRL-1427) and a mouse muscle derived cell line C2C12 (ATCC No. CRL-1772) were distributed from American Type Culture Collection (ATCC, USA). The cells were cultured in DMEM (Gibco, BRL, USA) supplemented with 10% FBS (fetal bovine serum) in a 37° C. 5% CO2 incubator with 100% humidity.
MG-63 cell culture medium having approximately at the density of 10^6 cells/20 ml was removed from 100 mm cell culture dish. The dish was washed with 5 ml of DPBS (Dulbeco's modified phosphate buffered saline). The buffer was removed and 0.5 ml of trypsin-EDTA was spread on the culture dish, which stood in a CO2 incubator for one minute to take the cells off. The cells were put in 5 ml of DMEM supplemented with 10% FBS and mixed well. […] The numbers of cells were counted by haemacytometer and then distributed into a96-well plate at the concentration of 10^4 cells/well. […]
To increase reliability of the test results, positive control was treated with 20 mM CaCl2 to induce 2˜5 fold higher expression of OPG than in negative control. […] OPG ELISA kit (OCT) was used and optical density was measured at 450 nm. […]

Q: How did the “expression of OPG versus negative control” value turn out when `[Ca+2].[Cl-].[Cl-]` [CaCl2] was run?
A: 2˜5 fold
